Measured values published in patent US10294202B2, “Pyrrolidinones as herbicides” (FMC Corporation, priority 2013, dated 2019).

How the values were obtained:
wheat, winter = assay: Test D pre-/postemergence herbicide test; assay type: in vivo, Triticum aestivum; conditions: for Plant response rating: Postemergence, Wheat, Winter, scale 0 to 100; for Plant response rating, Wheat, Winter: Preemergence, scale 0 to 100 (0 no effect, 100 complete control)
Method in brief: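 Compound applied in non-phytotoxic solvent with surfactant, either preemergence (silt loam soil) or postemergence (peat moss/vermiculite medium, 2–18 cm plants). Evaluated visually after 7 to 21 days; 0 = no effect, 100 = complete control.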

windgrass = assay: Test D pre-/postemergence herbicide test; assay type: in vivo, Apera spica-venti; conditions: for Plant response rating: Postemergence, Windgrass, scale 0 to 100; for Plant response rating, Windgrass: Preemergence, scale 0 to 100 (0 no effect, 100 complete control)
Text: Seeds of plant species selected from bluegrass (annual bluegrass, Poa annua), blackgrass (Alopecurus myosuroides), canarygrass (littleseed canarygrass, Phalaris minor), chickweed (common chickweed, Stellaria media), galium (catchweed bedstraw, Galium aparine), bromegrass, downy (downy bromegrass, Bromus tectorum), field poppy (Papaver rhoeas), field violet (Viola arvensis), foxtail, green (green foxtail, Setaria viridis), deadnettle (henbit deadnettle, Lamium amplexicaule), ryegrass, Italian (Italian ryegrass, Lolium multiflorum), kochia (Kochia scoparia), lambsquarters (Chenopodium album), oilseed rape (Brassica napus), pigweed (Amaranthus retroflexus), chamomile (scentless chamomile, Matricaria inodora), Russian thistle (Salsola kali), speedwell (bird's-eye speedwell, Veronica persica), barley, spring (spring barley, Hordeum vulgare), wheat, spring (spring wheat, Triticum aestivum), buckwheat, wild (wild buckwheat, Polygonum convolvulus), mustard, wild (wild mustard, Sinapis arvensis), oat, wild (wild oat, Avena fatua), radish, wild (wild radish, Raphanus raphanistrum), […]), barley, winter (winter barley, Hordeum vulgare), and wheat, winter (winter wheat, Triticum aestivum) were planted into a silt loam soil and treated preemergence with test chemicals formulated in a non-phytotoxic solvent mixture which included a surfactant. At the same time, these species were planted in pots containing Redi-Earth® planting medium (Scotts Company, 14111 Scottslawn Road, Marysville, Ohio 43041) comprising spaghnum peat moss, vermiculite, wetting agent and starter nutrients and treated with postemergence applications of the test chemicals formulated in the same manner. Plants ranged in height from 2 to 18 cm (1- to 4-leaf stage). Treated plants and controls were maintained in a controlled growth environment for 7 to 21 days after which time all species were compared to controls and visually evaluated. Plant response ratings, summarized in Table D, are based on a scale of 0 to 100 where 0 is no effect and 100 is complete control. A dash (-) response means no test result.

foxtail, green [1] = assay: Test E preemergence herbicide test; assay type: in vivo, Setaria viridis; parameters: key: 0 = no effect, 100 = complete control
Text: (§1) Seeds of plant species selected from corn (Zea mays), soybean (Glycine max), velvetleaf (Abutilon theophrasti), lambsquarters (Chenopodium album), wild poinsettia (Euphorbia heterophylla), pigweed, palmer (palmer pigweed, Amaranthus palmeri), waterhemp (common waterhemp, Amaranthus rudis), surinam grass (Brachiaria decumbens), crabgrass, large (large crabgrass, Digitaria sanguinalis), crabgrass, Brazil (Brazilian crabgrass, Digitaria horizontalis), panicum, fall (fall panicum, Panicum dichotomiflorum), foxtail, giant (giant foxtail, Setaria faberii), foxtail, green (green foxtail, Setaria viridis), goosegrass (Eleusine indica), johnsongrass (Sorghum halepense), ragweed (common ragweed, Ambrosia elatior), barnyardgrass (Echinochloa crus-galli), sandbur (southern sandbur, Cenchrus echinatus), arrowleaf […] rhombifolia), ryegrass, Italian (Italian ryegrass, Lolium multiflorum), dayflower, VA (Virginia dayflower, Commelina virginica), field bindweed (Convolvulus arvensis), morningglory (Ipomoea coccinea), nightshade (eastern black nightshade, Solanum ptycanthum), kochia (Kochia scoparia), nutsedge, yellow (yellow nutsedge, Cyperus esculentus), cocklebur (common cocklebur, Xanthium strumarium), smartweed (ladysthumb smartweed, Polygonum Persicaria) and beggarticks (hairy beggarticks, Bidens pilosa), were planted into a silt loam soil and treated preemergence with test chemicals formulated in a non-phytotoxic solvent mixture which included a surfactant. Treated plants and controls were maintained in a greenhouse for 21 days, after which time all species were compared to controls and visually evaluated. Plant response ratings, summarized in Table E, are based on a scale of 0 to 100 where 0 is no effect and 100 is complete control. A dash (-) response means no test result.

waterhemp = assay: Test E preemergence herbicide test; assay type: in vivo, Amaranthus rudis; parameters: key: 0 = no effect, 100 = complete control
Text: as §1

corn = assay: Test E preemergence herbicide test; assay type: in vivo, Zea mays; parameters: key: 0 = no effect, 100 = complete control
Text: as §1

foxtail, green [2] = assay: Test C pre-/postemergence herbicide test; assay type: in vivo, Setaria viridis
Method in brief: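 Herbicidal effect was judged by eye 13 to 15 days after treatment in the greenhouse, using a 0–100 scale against controls. Chemicals in a non-phytotoxic solvent with surfactant were sprayed onto planted loam/sand soil or onto plants 2 to 18 cm tall in a peat-based growing medium.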

For `O=C1NCC(c2ccc(C(F)(F)F)cc2)C1C(=O)Nc1cccc(F)c1F` (racemic) [Compound 202], the Plant response rating (wheat, winter; 31 g ai/ha) was 0, the Plant response rating (wheat, winter; 62 g ai/ha) was 0 and the Plant response rating (wheat, winter; 125 g ai/ha) was 0. The Plant response rating (wheat, winter; 250 g ai/ha) was 0, the “Plant response rating, Wheat, Winter” value (wheat, winter; 62 g ai/ha) was 10 and the “Plant response rating, Wheat, Winter” value (wheat, winter; 125 g ai/ha) was 25. The “Plant response rating, Wheat, Winter” value (wheat, winter; 31 g ai/ha) was 5, the “Plant response rating, Wheat, Winter” value (wheat, winter; 250 g ai/ha) was 25 and the Plant response rating (windgrass; 31 g ai/ha) was 0. For the same compound, the Plant response rating (windgrass; 62 g ai/ha) was 10, the Plant response rating (windgrass; 125 g ai/ha) was 35 and the Plant response rating (windgrass; 250 g ai/ha) was 45. The “Plant response rating, Windgrass” value (windgrass; 62 g ai/ha) was 85, the “Plant response rating, Windgrass” value (windgrass; 125 g ai/ha) was 90 and the “Plant response rating, Windgrass” value (windgrass; 31 g ai/ha) was 65. For the same compound, the “Plant response rating, Windgrass” value (windgrass; 250 g ai/ha) was 90, the “Plant response rating, Foxtail, Green” value (foxtail, green [1]; 31 g ai/ha) was 10 and the “Plant response rating, Foxtail, Green” value (foxtail, green [1]; 62 g ai/ha) was 75. For the same compound, the “Plant response rating, Foxtail, Green” value (foxtail, green [1]; 125 g ai/ha) was 98, the “Plant response rating, Foxtail, Green” value (foxtail, green [1]; 250 g ai/ha) was 98 and the “Plant response rating, Waterhemp” value (waterhemp; 31 g ai/ha) was 50. For the same compound, the “Plant response rating, Waterhemp” value (waterhemp; 62 g ai/ha) was 60, the “Plant response rating, Waterhemp” value (waterhemp; 125 g ai/ha) was 95 and the “Plant response rating, Waterhemp” value (waterhemp; 250 g ai/ha) was 95. For the same compound, the “Plant response rating, Corn” value (corn; 31 g ai/ha) was 0, the “Plant response rating, Corn” value (corn; 62 g ai/ha) was 0 and the “Plant response rating, Corn” value (corn; 125 g ai/ha) was 40. For the same compound, the “Plant response rating, Corn” value (corn; 250 g ai/ha) was 60.
For `O=C1NCC(c2ccc(OC(F)F)cc2)C1C(=O)Nc1cccc(F)c1F` (racemic) [Compound 350], the “Plant response rating, Foxtail, Green” value (foxtail, green [1]; 31 g ai/ha) was 20, the “Plant response rating, Foxtail, Green” value (foxtail, green [1]; 62 g ai/ha) was 35 and the “Plant response rating, Foxtail, Green” value (foxtail, green [1]; 125 g ai/ha) was 80. The “Plant response rating, Foxtail, Green” value (foxtail, green [1]; 250 g ai/ha) was 85, the “Plant response rating, Waterhemp” value (waterhemp; 31 g ai/ha) was 0 and the “Plant response rating, Waterhemp” value (waterhemp; 62 g ai/ha) was 0. For the same compound, the “Plant response rating, Waterhemp” value (waterhemp; 125 g ai/ha) was 0, the “Plant response rating, Waterhemp” value (waterhemp; 250 g ai/ha) was 35 and the “Plant response rating, Corn” value (corn; 31 g ai/ha) was 0. The “Plant response rating, Corn” value (corn; 62 g ai/ha) was 0, the “Plant response rating, Corn” value (corn; 125 g ai/ha) was 0 and the “Plant response rating, Corn” value (corn; 250 g ai/ha) was 0.
`O=C1NCC(c2ccc(Cl)c(F)c2)C1C(=O)Nc1cccc(F)c1F` (stereo not drawn) [Compound 52] was tested, and the Plant response rating (wheat, winter; 16 g ai/ha) was 0, the Plant response rating (wheat, winter; 31 g ai/ha) was 0 and the Plant response rating (wheat, winter; 62 g ai/ha) was 0. The Plant response rating (wheat, winter; 125 g ai/ha) was 0, the Plant response rating (wheat, winter; 250 g ai/ha) was 0 and the “Plant response rating, Wheat, Winter” value (wheat, winter; 62 g ai/ha) was 0. For the same compound, the “Plant response rating, Wheat, Winter” value (wheat, winter; 125 g ai/ha) was 0, the “Plant response rating, Wheat, Winter” value (wheat, winter; 16 g ai/ha) was 0 and the “Plant response rating, Wheat, Winter” value (wheat, winter; 31 g ai/ha) was 0. For the same compound, the “Plant response rating, Wheat, Winter” value (wheat, winter; 250 g ai/ha) was 10, the “Plant response rating, Foxtail, Green” value (foxtail, green [2]; Postemergence, 31 g ai/ha, scale 0 (no effect) to 100 (complete control)) was 0 and the “Plant response rating, Foxtail, Green” value (foxtail, green [2]; Postemergence, 62 g ai/ha, scale 0 to 100 (0 no effect, 100 complete control)) was 10. For the same compound, the “Plant response rating, Foxtail, Green” value (foxtail, green [2]; Postemergence, 125 g ai/ha, scale 0 to 100 (0 no effect, 100 complete control)) was 30, the “Plant response rating, Foxtail, Green” value (foxtail, green [2]; Postemergence, 250 g ai/ha, scale 0 to 100 (0 no effect, 100 complete control)) was 80 and the “Plant response rating, Foxtail, Green” value (foxtail, green [2]; Preemergence, 62 g ai/ha, scale 0 to 100) was 90. The “Plant response rating, Foxtail, Green” value (foxtail, green [2]; Preemergence, 125 g ai/ha, scale 0 to 100 (0 no effect, 100 complete control)) was 90, the “Foxtail, Green plant response rating” value (foxtail, green [2]; Preemergence, 31 g ai/ha, scale 0 to 100 (0 no effect, 100 complete control)) was 80 and the “Plant response rating, Foxtail, Green” value (foxtail, green [2]; Preemergence, 250 g ai/ha, scale 0 to 100 (0 no effect, 100 complete control)) was 90. For the same compound, the Plant response rating (windgrass; 16 g ai/ha) was 0, the Plant response rating (windgrass; 31 g ai/ha) was 0 and the Plant response rating (windgrass; 62 g ai/ha) was 0. For the same compound, the Plant response rating (windgrass; 125 g ai/ha) was 0, the Plant response rating (windgrass; 250 g ai/ha) was 0 and the “Plant response rating, Windgrass” value (windgrass; 62 g ai/ha) was 0. For the same compound, the “Plant response rating, Windgrass” value (windgrass; 125 g ai/ha) was 40, the “Plant response rating, Windgrass” value (windgrass; 16 g ai/ha) was 0 and the “Plant response rating, Windgrass” value (windgrass; 31 g ai/ha) was 0. The “Plant response rating, Windgrass” value (windgrass; 250 g ai/ha) was 60.
Work on `O=C1NCC(c2ccc(C(F)(F)F)cc2)C1C(=O)Nc1cccc(F)c1F` (stereo not drawn) [Compound 80, N-(2,3-difluorophenyl)-2-oxo-4-[4-(trifluoromethyl)phenyl]-3-pyrrolidinecarboxamide] yielded a Plant response rating (wheat, winter; 31 g ai/ha) of 0, a Plant response rating (wheat, winter; 62 g ai/ha) of 0 and a Plant response rating (wheat, winter; 125 g ai/ha) of 10. For the same compound, the Plant response rating (wheat, winter; 250 g ai/ha) was 5, the “Plant response rating, Wheat, Winter” value (wheat, winter; 62 g ai/ha) was 5 and the “Plant response rating, Wheat, Winter” value (wheat, winter; 125 g ai/ha) was 10. The “Plant response rating, Wheat, Winter” value (wheat, winter; 31 g ai/ha) was 5, the “Plant response rating, Wheat, Winter” value (wheat, winter; 250 g ai/ha) was 10 and the Plant response rating (windgrass; 31 g ai/ha) was 0. It also gave a Plant response rating (windgrass; 62 g ai/ha) of 10, a Plant response rating (windgrass; 125 g ai/ha) of 10 and a Plant response rating (windgrass; 250 g ai/ha) of 25. The “Plant response rating, Windgrass” value (windgrass; 62 g ai/ha) was 20, the “Plant response rating, Windgrass” value (windgrass; 125 g ai/ha) was 75 and the “Plant response rating, Windgrass” value (windgrass; 31 g ai/ha) was 5. The “Plant response rating, Windgrass” value (windgrass; 250 g ai/ha) was 90, the “Plant response rating, Foxtail, Green” value (foxtail, green [1]; 16 g ai/ha) was 50 and the “Plant response rating, Foxtail, Green” value (foxtail, green [1]; 31 g ai/ha) was 60. The “Plant response rating, Foxtail, Green” value (foxtail, green [1]; 62 g ai/ha) was 70, the “Plant response rating, Foxtail, Green” value (foxtail, green [1]; 125 g ai/ha) was 80 and the “Plant response rating, Foxtail, Green” value (foxtail, green [1]; 250 g ai/ha) was 90. The “Plant response rating, Waterhemp” value (waterhemp; 16 g ai/ha) was 0, the “Plant response rating, Waterhemp” value (waterhemp; 31 g ai/ha) was 20 and the “Plant response rating, Waterhemp” value (waterhemp; 62 g ai/ha) was 30. For the same compound, the “Plant response rating, Waterhemp” value (waterhemp; 125 g ai/ha) was 50, the “Plant response rating, Waterhemp” value (waterhemp; 250 g ai/ha) was 60 and the “Plant response rating, Corn” value (corn; 16 g ai/ha) was 0. The “Plant response rating, Corn” value (corn; 31 g ai/ha) was 0, the “Plant response rating, Corn” value (corn; 62 g ai/ha) was 0 and the “Plant response rating, Corn” value (corn; 125 g ai/ha) was 0. The “Plant response rating, Corn” value (corn; 250 g ai/ha) was 30.
